Test results taken from US7989451B2, “Tricyclic 1,2,4-triazine oxides and compositions for therapeutic use in cancer treatments” (Auckland Uniservices Limited, priority 2005, dated 2011).
Where two headings read alike, the source gives them in different places.

Assays:
[1] = test system: human colon carcinoma HT29; assay: Proliferation assay (IC50) under aerobic and hypoxic conditions, HT29; type: cell-based; conditions: for IC50: Homo sapiens, 4 h drug exposure, sulforhodamine B; for HCR: hypoxic cytotoxicity ratio = IC50 aerobic/IC50 hypoxic
Procedure: (§1) Compounds representative of the invention were evaluated under both aerobic and hypoxic conditions in a proliferation assay (IC50), using two cell lines: human colon carcinoma HT29, and human cervical carcinoma SiHa (Table 1).
(§2) Drug exposures were performed in 96-well plates (Nunc) either using a 37 DC humidified incubator (20% O2, 5% CO2) or in the incubator compartment (37° C.) of an anaerobic chamber (Shell Lab) where palladium catalyst scrubbed gas (90% N2, 5% H2, 5% CO2) ensures severe anoxia (<0.001% O2). For each experiment, compounds were simultaneously tested under both oxic and hypoxic conditions and included TPZ as an internal control. An 8-methyl-5-nitroquinoline derivative, SN 24349, known to require very low oxygen concentrations for bioactivation (Siim et al., Br. J. Cancer 1994, 70, 596-603) was used to confirm that strict hypoxia was present during the experiment. […] Cell cultures were grown in αMEM (Gibco) containing 5% heat inactivated FCS and maintained in exponential growth phase. For each individual experiment an appropriate number of cells were seeded (HT29=1100; SiHa=1500) into wells in αMEM+10% FCS+10 mM added glucose+100 μM 2′-deoxycytidine (2′dCyd), and allowed to attach for 2-3 h. High glucose (final concentration 17 mM) and the presence of 2′-dCyd minimize hypoxia-induced cell cycle arrest. Cultures were then exposed to drugs, using 3-fold serial dilutions in duplicate, for a further 4 h. Subsequently cells were washed free of compound using complete media (without glucose/2′-dCyd) and allowed to grow for 5 (oxic) or 6 (anoxic) days. Plates were stained with sulforhodamine B as described previously (Wilson et al., J. Med. Chem. 1989, 32, 31-38) and IC50 values determined.
(§3) HCR=Hypoxic cytotoxicity ratio is defined as the ratio of IC50 values under aerobic and hypoxic conditions (IC50 aerobic/IC50 hypoxic).

[2] = test system: human cervical carcinoma SiHa; assay: Proliferation assay (IC50) under aerobic and hypoxic conditions, SiHa; type: cell-based; conditions: for IC50: Homo sapiens, 4 h drug exposure, sulforhodamine B; for HCR: hypoxic cytotoxicity ratio = IC50 aerobic/IC50 hypoxic
Procedure: as §1, §2, §3

[3] = HT-29, hypoxic (anaerobic chamber, <0.001% O2), then 6 days growth, read-out: IC50 (μM) hypoxic
[4] = HT-29, oxic (20% O2), then 5 days growth, read-out: IC50 (μM) oxic
[5] = hypoxic (anaerobic chamber, <0.001% O2), then 6 days growth, read-out: IC50 (μM) hypoxic
[6] = oxic (20% O2), then 5 days growth, read-out: IC50 (μM) oxic

| SMILES | IC50 [1, 3] | IC50 [1, 4] | IC50 [2, 5] | IC50 [2, 6] | melting point | HCR [1] | HCR [2] |
| --- | --- | --- | --- | --- | --- | --- | --- |
| [O-][n+]1nc(CCCO)[n+]([O-])c2cc3c(cc21)CCC3 [Compound 71, 3-(1,4-Dioxido-7,8-dihydro-6H-indeno[5,6-e][1,2,4]triazin-3-yl)-1-propanol] | 15 ± 3 µM | 874 ± 119 µM | 6.9 ± 3.3 µM | 680 ± 95 µM | 153 to 155 °C | 57 ± 1 | 114 ± 31 |
| [O-][n+]1cn[n+]([O-])c2cc3c(cc21)CCC3 [Compound 65, 7,8-Dihydro-6H-indeno[5,6-e][1,2,4]triazine 1,4-Dioxide] | 2.4 ± 0.4 µM | 401 ± 236 µM | 1 ± 0.5 µM | 80 ± 7 µM | 179 to 181 °C | 226 ± 153 | 155 ± 117 |
| CCc1n[n+]([O-])c2cc3c(cc2[n+]1[O-])CN(C)CC3 [Compound 261, 3-Ethyl-7-methyl-6,7,8,9-tetrahydro[1,2,4]triazino[6,5-g]isoquinoline 1,4-Dioxide] | 13 ± 1 µM | 24 ± 2 µM | 3.1 ± 0.1 µM | 18 ± 1 µM | 124 to 128 °C | 2 ± 0.2 | 6 ± 0.2 |
| CCc1n[n+]([O-])c2cc3c(cc2[n+]1[O-])CCC3 [Compound 68, 3-Ethyl-7,8-dihydro-6H-indeno[5,6-e][1,2,4]triazine 1,4-Dioxide] | 48 ± 8 µM | 289 ± 3 µM | 37 ± 2 µM | 326 ± 7 µM | 140 to 142 °C | 6.0 ± 0.05 | 8.8 ± 0.2 |
| CC1Cc2cc3c(cc2C1)[n+]([O-])c(CCCO)n[n+]3[O-] (stereo not shown) [Compound 105, 3-(7-Methyl-1,4-dioxido-7,8-dihydro-6H-indeno[5,6-e][1,2,4]triazin-3-yl)-1-propanol] | 13 ± 1.3 µM | 1040 ± 28 µM | 8 ± 0.4 µM | 831 ± 30 µM | 130 to 131 °C | 80 ± 2 | 104 ± 4 |
| CC1Cc2cc3c(cc2C1)[n+]([O-])c(NCCN(C)C)n[n+]3[O-] (stereo not shown) [Compound 97, N^1,N^1-Dimethyl-N^2-(7-methyl-1,4-dioxido-7,8-dihydro-6H-indeno[5,6-e][1,2,4]triazin-3-yl)-1,2-ethanediamine] | 3.5 ± 0.4 µM | 185 ± 27 µM | 1.4 ± 0.3 µM | 123 ± 17 µM | 149 to 151 °C | 54 ± 14 | 97 ± 33 |
| CCc1n[n+]([O-])c2cc3c(cc2[n+]1[O-])CC(CO)C3 (stereo not shown) [Compound 136, (3-Ethyl-1,4-dioxido-7,8-dihydro-6H-indeno[5,6-e][1,2,4]triazin-7-yl)methanol] | 17.1 µM | 774 ± 8 µM | 6.5 ± 0.2 µM | 314 ± 60 µM | 157 to 158 °C | 45 | 48 ± 8 |
| CCCN(CCC)CCNc1n[n+]([O-])c2cc3c(cc2[n+]1[O-])CCC3 [Compound 29, N^1-(1,4-Dioxido-7,8-dihydro-6H-indeno[5,6-e][1,2,4]triazin-3-yl)-N^2,N^2-dipropyl-1,2-ethanediamine] | 2.5 µM | 196 µM | 0.7 µM | 63 µM | 142 to 145 °C | 77 | 91 |

The next lines start with results.

| IC50 [1, 3] | IC50 [1, 4] | IC50 [2, 5] | IC50 [2, 6] | melting point | SMILES | HCR [1] | HCR [2] |
| --- | --- | --- | --- | --- | --- | --- | --- |
| 2.4 ± 0.3 µM | 233 ± 19 µM | 1.4 ± 0.4 µM | 99 ± 14 µM | 150 to 152 °C | COC1CN(CCCNc2n[n+]([O-])c3cc4c(cc3[n+]2[O-])CCC4)C1 [Compound 55, N-[3-(3-Methoxy-1-azetidinyl)propyl]-7,8-dihydro-6H-indeno[5,6-e][1,2,4]triazin-3-amine 1,4-Dioxide] | 102 ± 22 | 83 ± 34 |
| 3.4 ± 0.1 µM | 165 ± 10 µM | 1.8 ± 0.2 µM | 108 ± 8 µM | 152 °C (dec.) | COC1CN(CCNc2n[n+]([O-])c3cc4c(cc3[n+]2[O-])CCC4)C1 [Compound 35, N-[2-(3-Methoxy-1-azetidinyl)ethyl]-7,8-dihydro-6H-indeno[5,6-e][1,2,4]triazin-3-amine 1,4-Dioxide] | 49 ± 5 | 61 ± 10 |
| 14.2 µM | 325 ± 70 µM | 5.3 ± 0.4 µM | 239 ± 22 µM | 140 to 141 °C | [O-][n+]1nc(NCCCCN2CCOCC2)[n+]([O-])c2cc3c(cc21)CCC3 [Compound 63, N-[4-(4-Morpholinyl)butyl]-7,8-dihydro-6H-indeno[5,6-e][1,2,4]triazin-3-amine 1,4-Dioxide] | 28 | 46 ± 8 |
| > 50 µM | 1610 µM | 20.5 ± 3.3 µM | 455 ± 25 µM | 182 to 184 °C | [O-][n+]1nc(NCCCO)[n+]([O-])c2cc3c(cc21)CCC3 [Compound 51, 3-[(1,4-Dioxido-7,8-dihydro-6H-indeno[5,6-e][1,2,4]triazin-3-yl)amino]-1-propanol] |  | 22 ± 1 |
| 5.2 ± 0.9 µM | 250 ± 119 µM | 1.2 ± 0.1 µM | 99 ± 32 µM | 131 to 133 °C | CN(C)CCNc1n[n+]([O-])c2cc3c(cc2[n+]1[O-])CCCCC3 [Compound 189, N^1-(1,4-Dioxido-7,8,9,10-tetrahydro-6H-cyclohepta[g][1,2,4]benzotriazin-3-yl)-N^2,N^2-dimethyl-1,2-ethanediamine] | 54 ± 32 | 88 ± 32 |
| 2.7 ± 0.2 µM | 117 ± 47 µM | 1.1 ± 0.1 µM | 73 ± 14 µM | 170 to 172 °C | CC1CCCC(C)N1CCNc1n[n+]([O-])c2cc3c(cc2[n+]1[O-])CCC3 (stereo not shown) [Compound 39, N-[2-(2,6-Dimethyl-1-piperidinyl)ethyl]-7,8-dihydro-6H-indeno[5,6-e][1,2,4]triazin-3-amine 1,4-Dioxide] | 42 ± 15 | 65 ± 13 |
| 3.5 ± 0.3 µM | 187 ± 98 µM | 1.2 ± 0.1 µM | 91 ± 3 µM | 148 to 151 °C | COC1CCN(CCNc2n[n+]([O-])c3cc4c(cc3[n+]2[O-])CCC4)CC1 [Compound 43, N-[2-(4-Methoxy-1-piperidinyl)ethyl]-7,8-dihydro-6H-indeno[5,6-e][1,2,4]triazin-3-amine 1,4-Dioxide] | 56 ± 33 | 78 ± 11 |
| 5.9 ± 0.8 µM | 172 ± 100 µM | 2.5 ± 0.8 µM | 162 ± 48 µM | 58 to 61 °C | COCCN(C)CCNc1n[n+]([O-])c2cc3c(cc2[n+]1[O-])CCC3 [Compound 31, N^1-(1,4-Dioxido-7,8-dihydro-6H-indeno[5,6-e][1,2,4]triazin-3-yl)-N^2-(2-methoxyethyl)-N2-methyl-1,2-ethanediamine] | 26 ± 12 | 67 ± 2 |
| 47 ± 4 µM | 1520 µM | 17.7 ± 0.6 µM | 751 µM | 187 to 188 °C | [O-][n+]1nc(NCCO)[n+]([O-])c2cc3c(cc21)CCC3 [Compound 25, 2-[(1,4-Dioxido-7,8-dihydro-6H-indeno[5,6-e][1,2,4]triazin-3-yl)amino]ethanol] | 32 | 42 |
